Two molecules from paper PMC12866179, “Oxidized MIF is an Alzheimer’s disease drug target relaying external risk factors to tau pathology” (Cell Reports Medicine, 2025) can be followed below.

On the set-up of data set [1]: species or system SD rats. Conditions: rat, in vivo, ip, 5 mg/kg. The method, then:
Figure S5. PAV-17 4 decreases ta u phosphorylation and aggr e gat ion in vi v o. Rel a ted to […]
(A) MTD (Maximum Tol erated Dose) assessment of PAV com pounds in BALB/c mice. BALB/c mice we re dosed through int ra pe rit o ne al (IP ) ro ute at di ff e ren t doses as pe r bo dy we igh t of an ima ls an d mice we re obser ved at di ff e ren t time interval for toxic signs till 48 h, PD (Post dose) . MTD at wa s declared at NOAEL (No-obser ved-adver se-effect level) conc. of PAV […]
(B) PAV-61 7 dose- an d MIF-de pe nd en t ly reduces tau phosphorylati on (A T8) . SH-SY5Y-P301S-control or -MIF-knockdown cel ls we re treated with the indicated concentrations of PAV- […]
cel ls. The di ag ram s show the signals of AT8 normalized to total tau (HT7 ) from six (n =6) in de pe nd en t exper iments. One-wa y ANOVA (Sidak´s post-hoc)
(C) Pharmacokinetic assessment of PAV-61 7 in Sprague Da wley ra ts (S D). Ma le SD ra ts (n=4) we re dosed via three ro utes na me ly intravenous (IV )- 1 mg/kg, (IP )- 5 mg/kg an d per ora l (P O)- 5 mg/kg. Plasma concentration wa s anal yzed at di ff e ren t time intervals. Pharmacokinetic pa ra met e rs we re de t erm ine d usi ng Win No nlin . Cma x (p ea k pl asma concentration) achieved through IV wa s 12 8 ng / mL, IP wa s 36 2. 6 ng / mL an d PO wa s 15 1. 1 ng / mL at Tmax (time of pe ak concentration obser ved) 1 h, 0. 5 h an d 4 h respectively. […]

In a further data set the test system is GSK3β. As to the kind of experiment: GSK3β phosphorylation (Ser9) in SH-SY5Y-tau-P301S cells, immunoblot. It counts as cell-based, human. To be noted: dose-dependent and MIF-dependent. The method, then:
After the protein concentration of cell lysates and homogenates had been determined using the DC Protein Assay Kit (Bio-Rad), 20 μg of each sample were dissolved in NuPAGE LDS Sample buffer (including 2% β-mercaptoethanol), boiled at 100°C for 5 min and then separated on NuPAGE Novex 4–12% Bis-Tris midi gels (Invitrogen) using NuPAGE MES SDS Running buffer (Invitrogen). Proteins were then transferred to a 0.2 μm nitrocellulose membrane (Amersham) in 24 mM Tris/192 mM glycine/20% MeOH at 400 mA for 2h using a tank blot system (Bio-Rad). In order to detect any blotting artifacts, the proteins on the membranes were visualized with Ponceau S (Sigma). The membranes were destained with PBS and then blocked with PBS/5% nonfat milk (Oxoid) for 1h at RT. Incubations with primary antibodies (diluted 1:1,000) in PBS-T were carried out overnight at 4°C. Then the membranes were washed three times with PBS-T for 10 min and afterward incubated with fluorescent secondary antibodies (IR Dye 680 or 800: Li-COR Biosciences.) diluted 1:20,000 in PBS-T for 1h at RT. Following three washing steps with PBS-T for 10 min each, the membranes were scanned using an LI-COR Odyssey CLX. Signal intensities were calculated using the Image Studio Version 2.1 software (LI-COR Biosciences). Blots were reused for staining with additional primary antibodies following the same procedure.
A general note: In western blotting, separated proteins are transferred to a membrane and probed.

A further data set relates to human brain organoids. As to the kind of experiment: TUNEL assay in human brain organoids. Type of data set: cell-based. The method, then: 60 days old human brain organoids with an estimated cell number of 2.5x10^6 were preincubated with DMSO or 250 nM of PAV-174 for 1h (final DMSO concentration was 0.5%). Then organoids were infected with HSV-1 at an MOI of 0.1 or 1.0. At the next day the medium was renewed and new compound was added. After another 24h, the organoids were washed two times with PBS and then either fixed with 4% PFA at 4°C overnight (for immunocytochemistry and TUNEL assay) or lysed with cold RIPA buffer (50 mM Tris-HCL, pH 7.4, 1% NP-40, 0.5% Na-deoxycholate, 0.1% SDS, 150 mM NaCl, 5 mM EDTA, 50 mM NaF) plus 1X Protease inhibitor cocktail (Roche) and phosphatase inhibitor cocktail (Sigma) followed by 4x sonication for 30s using a Misonix ultrasonic water bath at 100% amplitude. Protein concentration was determined with the DC Protein Assay (Bio-Rad). For immunocytochemistry and TUNEL assay fixed organoids were embedded in paraffin and section of 5 μm were prepared.
Apoptotic cells in sections of brain organoids were detected by TdT-mediated dUTP-biotin nick end labeling (TUNEL) using the DeadEnd Fluorometric TUNEL System (Promega) according to the manufacturers recommendations. At least three 5-μm sections of the brain organoids were analyzed by taking at least 10 images of each organoid. Dead cells were counted using Fiji/ImageJ (NIH).

Consider `[I-].c1cc2nc3ccc(N4CCCC4)cc3[s+]c2cc1N1CCCC1` [PAV-617, 3,7-Di(pyrrolidine-1-yl)phenothiazine-5-ium iodide], for which the tissue penetration result in data set [1] is reported as “good tissue penetration, including the brain”.
For the molecule `CCc1cc(N2CCCC2)cc2[s+]c3cc(N4CCCC4)cc(C)c3nc12.[I-]` [PAV-174, 3,7-Di(pyrrolidine-1-yl) 1-ethyl-9-methyl-phenothiazin-5-ium iodide], in the data set on GSK3β, the “phosphorylation of GSK3β at Ser9” value is on record as “increased”. Also, the “induction of apoptosis in human brain organoids” value with human brain organoids is given as “no induction of apoptosis”. In addition, the “cell toxicity mediated by HSV-1 infection (TUNEL-positive cells)” value in the data set on human brain organoids (HSV-1-infected brain organoids) is given as “lowered cell toxicity mediated by HSV-1 infection”.
